Columns and labels:
[1] = tested on: humanized Siglec-11 transgenic mice; assay: Experimental autoimmune encephalomyelitis (animal model of multiple sclerosis); assay type: in vivo
Description: Experimental autoimmune encephalomyelitis was induced in humanized Siglec-11 transgenic mice (humanized Siglec-11 mouse) and littermate control mice (normal control mice). Therefore, adult 6-8 weeks-old female humanized Siglec-11 transgenic mice (Wang et al. 2009, dissertation, University Bonn, uniform resource name: urn:nbn:de:hbz:5N-18095) and littermate control mice were immunized with 100 μg of myelin oligodendrocyte glycoprotein MOG (amino acids 35-55; Seqlab) in […] Freunds adjuvant (both DIFCO; BD GmbH, Heidelberg, Germany). Pertussis toxin (200 ng; List Biological Laboratories, Epsom, UK) was injected on days 0 and 2 of immunization. Clinical signs were scored as following: 0, no clinical signs; 1, complete limp tail; 2, complete limp tail and weakness of hindlimbs; 3, paraparesis of at least one hindlimb; 4, complete hindlimb paraparesis and weakness of forelimbs; and 5, fore- and hindlimb paralysis or moribund. Only mice having disease onset (clinical score of >=1) until day 20 were used for experiments.
Low molecular weight PSA-20 (1 μg per g body weight) was applied intraperitoneally into the mice on the day of disease onset (clinical score at least 1) and daily on the following three consecutive days. […] The cumulative disease score from the first day of treatment until day 25 was determined.

[2] = Biotinylated PSA-20 in serum and brain after intraperitoneal application (ELISA); assay type: in vivo, mice
Description: First, PSA-20 was conjugated with biotin and a sensitive ELISA to detect biotinylated PSA-20 was established. The PSA-20 was coupled with a biotin molecule at the sixth carbon atom of sialic acid at the terminus of the PSA-20 chains. Therefore, the terminus of PSA-20 was oxidized to an aldehyde by sodium metaperiodate. Afterwards, hydrazide coupled biotin was conjugated at room temperature to the aldehyde group to form a hydrazone bond. Purification was carried out with a desalting column (HiTrap Desalting Column GE Healthcare).
Biotin-conjugated PSA-20 (10 μg per g body weight) was applied in adult mice by intraperitoneal application. An ELISA method was used to detect biotinylated PSA-20 in the serum and brain. For the ELISA, NeutrAvidin coated pre-blocked plates (Thermo Scientific) were washed three times with PBST (PBS+0.05% Tween-20). After washing, plasma and brain homogenate as well as defined concentrations of biotinylated PSA-20 as standard were applied for 1 h at room temperature. Plates were washed three times and were incubated with a monoclonal antibody directed against oligosialic acids (rat-anti-mouse CD56, BD Pharmingen #556325) over night at 4° C. The following day the plate were washed three times and incubated with goat anti-mouse immunoglobulin conjugated with peroxidase-HRP (Jackson ImmunoResearch). Then, plates were washed and incubated with 100 μl TMB-reagent for 30 min at room temperature. The reaction was stopped by addition of 100 μl 1N HCl and the signal was detected with an ELISA reader.
Serum and brain tissue of one mouse was analyzed before application and at 0.5, 1, 2, 4 and 8 hours after application. The highest PSA-20 level was detected in the serum at 0.5 hours and in the brain at 2 hours. The half-time of PSA-20 in the serum and in the brain was estimated to be between 2 and 3 hours. The bioavailability of PSA-20 in the brain in relation to the serum was estimated to be between 1 and 3%. […] As can be taken from the FIG. 10C, PSA-20 was detected in the serum and the brain. […]

human microglial cells = assay: Phagocytosis associated oxidative burst: neural debris triggered superoxide release (DHE); assay type: cell-based
Description: To measure the relative production of superoxide by the microglial cells, human microglial cells were plated in 4-chamber culture dishes. After 24 hours cells were treated with 5 mg/ml neural debris for 15 minutes with or without 1 hour PSA-20 pre-incubation at concentrations of 0.15 μM, 0.5 μM or 1.5 μM. Then, cells were washed 2-times with Krebs-HEPES-buffer. To detect the release of superoxide the cells were afterwards incubated for 15 minutes with 30 μM superoxide-sensitive fluorescent dye dihydroethidium (DHE) solution diluted in Krebs-HEPES-buffer. Finally cells were washed 2-times with Krebs-HEPES-buffer and fixed for 15 minutes with 0.25% glutaraldehyde and 4% PFA. In total, six images were randomly collected per experimental group by confocal laser scanning microscopy (Fluoview 1000, Olympus). All cells of the collected images were analyzed by Image J software (NIH).
To confirm the effect, Trolox as scavenger of superoxide and superoxide dismutase-1 (SOD1) as modifier of superoxide were used in a control experiment as described above using 1.5 μM of PSA-20 but adding either 40 μM Trolox or 20 μg/ml (SOD1) into the medium. […] As can be taken from the FIG. 9C, the radical scavenger Trolox and the superoxide dismutase SOD1 neutralized the neural debris triggered superoxide release and as controls confirmed that DHE detected an extracellular production of superoxide.

[3] = biotin-conjugated PSA-20, 10 μg per g body weight i.p., adult mice

Q: For poly-(α(2→8)Neu5Ac)n [PSA-20], which “clinical signs (clinical score)” value ([1]; Siglec-11 transgenic mice, 1 μg per g body weight i.p. from disease onset, 4 days, from day 14 onwards, FIG. 8A) is on record?
A: improved clinical signs

Q: What about the cumulative disease score ([1]; first day of treatment until day 25, FIG. 8B) of the same substance?
A: improved the clinical signs of disease

Q: And the “passage of the blood-brain barrier” value ([2]; after systemic application)?
A: passed the blood-brain barrier

Q: What about the “time of peak concentration in the brain” value [2, 3] of the same substance?
A: 2 h

Q: What about the “time of peak concentration in the serum” value [2, 3] of the same substance?
A: 0.5 h

Q: And the “superoxide release triggered by neural debris” value (human microglial cells; 0.5 μM and 1.5 μM)?
A: inhibited

Q: What about the “relative superoxide production, debris-induced” value (human microglial cells; 1.5 μM, 1 hour pre-incubation, debris alone 1.5+/−0.08, FIG. 9C) of the same substance?
A: 0.9+/−0.05

Source: US9944721B2, “Polysialic acid and use for treatment of neurodegenerative and neuroinflammatory diseases” (RHEINISCHE FRIEDRICH-WILHELMS UNIVERSITÄT BONN, priority 2013, dated 2018)
